Our source for the IC50 and Ki values is publication PMC8470274, “Comprehensive Investigation of Stereoselective Food Drug Interaction Potential of Resveratrol on Nine P450 and Six UGT Isoforms in Human Liver Microsomes” (Pharmaceutics, 2021).

Each structure is given as a SMILES string. Where two headings read alike, the source gives them in different places.

The target in assay [1] is T1, UGT1A9 (Homo sapiens, UniProt O60656).
T1 construct: native enzyme in pooled human liver microsomes (alamethicin-treated), read by mycophenolic acid glucuronidation
T1 sequence (O60656 26-530): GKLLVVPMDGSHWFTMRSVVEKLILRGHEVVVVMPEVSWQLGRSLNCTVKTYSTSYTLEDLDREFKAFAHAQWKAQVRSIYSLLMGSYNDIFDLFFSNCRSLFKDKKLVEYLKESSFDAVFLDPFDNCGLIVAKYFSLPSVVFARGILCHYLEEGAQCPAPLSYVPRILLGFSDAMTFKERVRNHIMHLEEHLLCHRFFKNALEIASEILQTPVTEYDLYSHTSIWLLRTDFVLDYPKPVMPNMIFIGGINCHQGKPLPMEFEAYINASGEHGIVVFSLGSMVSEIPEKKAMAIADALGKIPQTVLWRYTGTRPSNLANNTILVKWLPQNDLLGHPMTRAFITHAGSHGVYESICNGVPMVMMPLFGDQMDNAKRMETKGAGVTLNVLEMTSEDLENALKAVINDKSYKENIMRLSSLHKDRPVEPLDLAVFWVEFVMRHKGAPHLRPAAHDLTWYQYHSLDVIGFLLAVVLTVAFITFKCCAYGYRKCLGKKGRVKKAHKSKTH
Description: HLM UGT substrate cocktail, LC-MS/MS. The conditions noted are these: mycophenolic acid 0.2 µM; UDPGA 5 mM; alamethicin; 0.25 mg/mL HLM; 37 °C; read-out: Trans-Resveratrol. The assay is classed as biochemical. From the text: HLM UGT substrate cocktail, LC-MS/MS on UGT1A9

The target of assay [2] is T2, UGT1A6 (Homo sapiens, UniProt P19224).
T2 construct: native enzyme in pooled human liver microsomes (alamethicin-treated), read by N-acetylserotonin glucuronidation
T2 sequence (P19224 27-532): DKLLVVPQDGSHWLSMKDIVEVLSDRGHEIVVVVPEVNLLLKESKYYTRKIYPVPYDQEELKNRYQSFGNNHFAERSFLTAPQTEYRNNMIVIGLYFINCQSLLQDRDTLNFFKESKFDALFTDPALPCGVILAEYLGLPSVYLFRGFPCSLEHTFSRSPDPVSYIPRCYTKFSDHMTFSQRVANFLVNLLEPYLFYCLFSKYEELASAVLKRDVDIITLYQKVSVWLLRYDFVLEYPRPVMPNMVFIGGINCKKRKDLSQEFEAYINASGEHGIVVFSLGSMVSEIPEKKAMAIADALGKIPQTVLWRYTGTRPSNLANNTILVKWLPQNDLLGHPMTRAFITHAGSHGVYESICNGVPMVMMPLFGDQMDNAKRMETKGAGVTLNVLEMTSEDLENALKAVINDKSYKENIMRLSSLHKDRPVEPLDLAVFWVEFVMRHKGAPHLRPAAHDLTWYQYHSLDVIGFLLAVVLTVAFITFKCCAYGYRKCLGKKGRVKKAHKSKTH
Description: HLM UGT substrate cocktail, LC-MS/MS. The conditions noted are these: N-acetylserotonin 1 µM; UDPGA 5 mM; alamethicin; 0.25 mg/mL HLM; 37 °C; read-out: Trans-Resveratrol. The assay is classed as biochemical. From the text: HLM UGT substrate cocktail, LC-MS/MS on UGT1A6

For assay [3], the system named is T3, CYP3A.
T3 construct: gene CYP3A4; native CYP3A in pooled human liver microsomes, read by midazolam 1'-hydroxylation (nifedipine as second probe)
Description: HLM substrate cocktail, LC-MS/MS. The assay is classed as biochemical, Homo sapiens. The conditions noted are these: midazolam 0.1 µM, NADPH-generating system, 0.25 mg/mL HLM, 37 °C, without 30 min preincubation. From the text:
HLM substrate cocktail, LC-MS/MS on CYP3A

The target in assay [4] is T4, UGT1A4 (Homo sapiens, UniProt P22310).
T4 construct: native enzyme in pooled human liver microsomes (alamethicin-treated), read by trifluoperazine glucuronidation
T4 sequence (P22310 29-534): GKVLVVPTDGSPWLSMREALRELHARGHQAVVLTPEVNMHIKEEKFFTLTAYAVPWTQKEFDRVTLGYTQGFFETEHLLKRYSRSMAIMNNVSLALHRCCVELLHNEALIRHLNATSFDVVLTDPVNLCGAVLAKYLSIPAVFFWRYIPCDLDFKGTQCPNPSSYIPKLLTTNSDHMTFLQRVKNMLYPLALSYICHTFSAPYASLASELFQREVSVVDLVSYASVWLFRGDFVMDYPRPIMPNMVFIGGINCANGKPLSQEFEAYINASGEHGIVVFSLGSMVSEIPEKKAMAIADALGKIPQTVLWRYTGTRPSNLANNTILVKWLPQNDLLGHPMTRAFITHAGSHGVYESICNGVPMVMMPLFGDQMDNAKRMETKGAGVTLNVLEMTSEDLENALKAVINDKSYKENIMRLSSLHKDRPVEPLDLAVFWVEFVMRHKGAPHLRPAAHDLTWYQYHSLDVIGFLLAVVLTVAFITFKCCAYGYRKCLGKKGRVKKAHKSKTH
The assay can be described thus: HLM UGT substrate cocktail, LC-MS/MS. Format: biochemical. The conditions noted are these: trifluoperazine 0.5 µM; UDPGA 5 mM; alamethicin; 0.25 mg/mL HLM; 37 °C; read-out: Trans-Resveratrol. From the text: HLM UGT substrate cocktail, LC-MS/MS on UGT1A4

The target of assay [5] is T5, UGT1A1 (Homo sapiens, UniProt P22309).
T5 construct: native enzyme in pooled human liver microsomes (alamethicin-treated), read by SN-38 glucuronidation
T5 sequence (P22309 26-533): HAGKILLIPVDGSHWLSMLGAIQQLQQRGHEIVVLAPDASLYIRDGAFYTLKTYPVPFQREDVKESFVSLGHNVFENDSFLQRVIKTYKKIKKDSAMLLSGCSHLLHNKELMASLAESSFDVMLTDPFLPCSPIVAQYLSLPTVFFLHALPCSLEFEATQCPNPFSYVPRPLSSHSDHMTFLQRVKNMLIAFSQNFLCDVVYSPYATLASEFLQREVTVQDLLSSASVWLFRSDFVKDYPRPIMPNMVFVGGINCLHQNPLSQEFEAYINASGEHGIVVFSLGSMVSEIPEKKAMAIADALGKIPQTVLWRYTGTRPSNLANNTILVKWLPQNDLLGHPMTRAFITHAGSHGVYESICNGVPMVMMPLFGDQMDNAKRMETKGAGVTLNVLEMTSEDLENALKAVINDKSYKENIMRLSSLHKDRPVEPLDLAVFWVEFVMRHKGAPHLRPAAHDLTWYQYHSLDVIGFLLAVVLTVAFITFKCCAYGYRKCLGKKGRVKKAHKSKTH
The assay can be described thus: HLM UGT substrate cocktail, LC-MS/MS. Format: biochemical. The conditions noted are these: SN-38 0.5 µM, UDPGA 5 mM, alamethicin, 0.25 mg/mL HLM, 37 °C. From the text:
HLM UGT substrate cocktail, LC-MS/MS on UGT1A1

Assay [6] deals with T5, UGT1A1. Description: HLM inhibition kinetics, Dixon / Lineweaver-Burk, LC-MS/MS. The assay is classed as biochemical. The settings on record: SN-38 0.5-10 µM; UDPGA; noncompetitive; read-out: trans-Resveratrol / Without Preincubation / Ki.
The target of assay [7] is T3, CYP3A. Described as above. The assay is classed as biochemical, Homo sapiens. The settings on record: midazolam 0.1-2 µM; NADPH-generating system; without preincubation; noncompetitive; read-out: trans-Resveratrol / Without Preincubation / Ki.
Description: HLM inhibition kinetics, Dixon / Lineweaver-Burk, LC-MS/MS on CYP3A
Assay [8] addresses T6, UGT2B7 (Homo sapiens, UniProt P16662).
T6 construct: native enzyme in pooled human liver microsomes (alamethicin-treated), read by naloxone glucuronidation
T6 sequence (P16662 24-529): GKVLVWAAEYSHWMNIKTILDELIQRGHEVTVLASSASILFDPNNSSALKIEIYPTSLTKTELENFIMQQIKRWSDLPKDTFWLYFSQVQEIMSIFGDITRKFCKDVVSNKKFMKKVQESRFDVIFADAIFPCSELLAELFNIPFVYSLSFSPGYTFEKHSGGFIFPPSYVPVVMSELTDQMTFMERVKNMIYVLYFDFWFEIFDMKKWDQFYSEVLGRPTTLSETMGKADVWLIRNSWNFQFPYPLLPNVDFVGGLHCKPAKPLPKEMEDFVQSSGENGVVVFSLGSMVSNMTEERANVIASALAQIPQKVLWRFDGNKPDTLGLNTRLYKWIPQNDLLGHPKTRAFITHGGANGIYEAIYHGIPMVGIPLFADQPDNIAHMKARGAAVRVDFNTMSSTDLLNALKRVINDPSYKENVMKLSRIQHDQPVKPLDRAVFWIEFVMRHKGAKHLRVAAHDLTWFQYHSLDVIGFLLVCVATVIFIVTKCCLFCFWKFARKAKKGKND
Description: HLM UGT substrate cocktail, LC-MS/MS. The assay is classed as biochemical. The settings on record: naloxone 0.2 µM; UDPGA 5 mM; alamethicin; 0.25 mg/mL HLM; 37 °C; read-out: Trans-Resveratrol. From the text:
HLM UGT substrate cocktail, LC-MS/MS on UGT2B7

Assay [9] has as its target T7, UGT1A3 (Homo sapiens, UniProt P35503).
T7 construct: native enzyme in pooled human liver microsomes (alamethicin-treated), read by chenodeoxycholic acid 24-glucuronidation
T7 sequence (P35503 29-534): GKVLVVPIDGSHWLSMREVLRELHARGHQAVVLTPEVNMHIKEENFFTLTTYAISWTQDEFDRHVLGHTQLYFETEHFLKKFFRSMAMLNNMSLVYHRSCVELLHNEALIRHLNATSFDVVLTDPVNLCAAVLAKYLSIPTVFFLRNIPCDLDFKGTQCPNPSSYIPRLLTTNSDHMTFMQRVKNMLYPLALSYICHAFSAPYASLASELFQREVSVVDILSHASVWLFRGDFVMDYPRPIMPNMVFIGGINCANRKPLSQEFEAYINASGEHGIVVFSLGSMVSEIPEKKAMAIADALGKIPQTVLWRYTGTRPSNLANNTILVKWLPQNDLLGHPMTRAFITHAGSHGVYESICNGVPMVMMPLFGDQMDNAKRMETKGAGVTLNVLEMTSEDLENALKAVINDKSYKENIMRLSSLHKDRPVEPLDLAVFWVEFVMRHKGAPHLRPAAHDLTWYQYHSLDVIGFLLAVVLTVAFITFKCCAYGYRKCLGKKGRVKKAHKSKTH
Description: HLM UGT substrate cocktail, LC-MS/MS. Format: biochemical. The conditions noted are these: chenodeoxycholic acid 2 µM; UDPGA 5 mM; alamethicin; 0.25 mg/mL HLM; 37 °C; read-out: Trans-Resveratrol. From the text:
HLM UGT substrate cocktail, LC-MS/MS on UGT1A3

Assay [10] has as its target T8, CYP2A6 (Homo sapiens, UniProt P11509).
T8 construct: native enzyme in pooled human liver microsomes, read by coumarin 7-hydroxylation
T8 sequence (P11509 1-494): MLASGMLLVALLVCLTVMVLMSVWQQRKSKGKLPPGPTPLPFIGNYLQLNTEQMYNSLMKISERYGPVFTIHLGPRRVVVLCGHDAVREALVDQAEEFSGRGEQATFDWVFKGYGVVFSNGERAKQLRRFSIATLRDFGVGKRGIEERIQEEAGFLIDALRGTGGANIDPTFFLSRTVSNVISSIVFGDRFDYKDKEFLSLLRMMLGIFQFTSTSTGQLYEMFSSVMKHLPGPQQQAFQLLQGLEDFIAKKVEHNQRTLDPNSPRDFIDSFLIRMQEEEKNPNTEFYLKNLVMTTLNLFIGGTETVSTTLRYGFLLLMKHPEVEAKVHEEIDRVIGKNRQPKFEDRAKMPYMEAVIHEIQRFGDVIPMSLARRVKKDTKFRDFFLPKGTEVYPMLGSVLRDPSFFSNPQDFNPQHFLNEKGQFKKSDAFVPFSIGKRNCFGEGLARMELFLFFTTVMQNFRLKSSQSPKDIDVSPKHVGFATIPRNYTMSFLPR
The assay can be described thus: HLM substrate cocktail, LC-MS/MS. The conditions noted are these: coumarin 1 µM; NADPH-generating system; 0.25 mg/mL HLM; 37 °C; without 30 min preincubation; read-out: Trans-resveratrol (μM) / Without Preincubation. Format: biochemical. From the text:
HLM substrate cocktail, LC-MS/MS on CYP2A6

For `Oc1ccc(/C=C/c2cc(O)cc(O)c2)cc1` [A, 3,5,4′-Trihydroxystilbene], the IC50 in assay [1] was greater than 50 µM; in assay [2], greater than 50 µM; in assay [3] (read-out: Trans-resveratrol (μM) / Without Preincubation), 29.2 ± 4.5 µM; in assay [4], greater than 50 µM; in [5] (read-out: Trans-Resveratrol) it was 9.57 ± 1.6 µM; in assay [8], greater than 50 µM. The IC50 in assay [9] and in [10] was greater than 50 µM each time. Also, the Ki amounted to 27.4 ± 3.6 µM in assay [6] and 23.8 ± 2.3 µM in assay [7].
Take `Oc1ccc(/C=C\c2cc(O)cc(O)c2)cc1` [B, 3,5,4′-Trihydroxystilbene]: the IC50 in assay [1], in assay [2], in [3] (read-out: Cis-resveratrol (μM) / Without Preincubation), in assay [4], in assay [5] (read-out: Cis-Resveratrol) and in assay [8] was greater than 50 µM each time. Further, the IC50 in assay [9] and in assay [10] was greater than 50 µM throughout.
